This assay concerns Diabrotica balteata. The assay is described as follows: Transovarial effects on Diabrotica balteata adults fed on sprayed bean plants (% egg mortality). As to conditions: for mortality at 10 ppm / mortality at 25 ppm / mortality at 50 ppm: Diabrotica balteata; for Transovarial effects on treated adults of Diabrotica balteata: at the used dose rates. It is filed as in vivo. The procedure:
The following IGRs in Table 1 were tested for their transovarial effects on Diabrotica balteata by observing percentage egg mortality.
Bean plants (Phaseolus vulgaris, var. Amata) were treated in an automatic spray chamber (ARO-1) with around 500 l/ha. After drying of the spray deposits, plants were placed in gauze cages and infested with newly hatched (0-24 h old) Diabrotica balteata adults. After seven days, treated plants were removed and replaced by non-treated plants. From day seven to day 38 eggs were collected in three-day intervals, counted and checked on number of hatched larvae (% egg mortality). Percentage egg mortality was calculated as the number of unhatched eggs per total number of eggs laid.

The mark [1] stands for this setting: egg laying period 1, read-out: % egg mortality: on egg laying period 1.
[2] abbreviates: egg laying period 2, read-out: % egg mortality: on egg laying period 2.
[3] abbreviates: egg laying period 3, read-out: % egg mortality: on egg laying period 3.
[4] abbreviates: egg laying period 4, read-out: % egg mortality: on egg laying period 4.
Setting [5] is: egg laying period 5, read-out: % egg mortality: on egg laying period 5.
The mark [6] stands for this setting: egg laying period 6, read-out: % egg mortality: on egg laying period 6.
The mark [7] stands for this setting: egg laying period 7, read-out: % egg mortality: on egg laying period 7.
[8] abbreviates: egg laying period 8, read-out: % egg mortality: on egg laying period 8.

Where two headings read alike, the source gives them in different places.

On to `O=C(NC(=O)c1c(F)cccc1F)Nc1ccc(Oc2ccc(C(F)(F)F)cc2Cl)cc1F` [Cascade, Flufenoxuron], for which the “Transovarial effects on treated adults of Diabrotica balteata” value (“Transovarial effects on treated adults” below) is recorded as “Transovarial effects can be observed”. Moreover, under setting [1], the mortality (usually the share of the test organisms that died) at 10 ppm was found to be 69% and the mortality at 25 ppm was found to be 100%. In addition, under setting [2], the mortality at 10 ppm came out at 22%, the mortality at 25 ppm is 100% and the mortality at 50 ppm was found to be 100%. Also, under setting [3], the mortality at 10 ppm is 91%, the mortality at 25 ppm is 98% and the mortality at 50 ppm worked out at 100%. Under setting [4], the mortality at 10 ppm was 10%, the mortality at 25 ppm stood at 64% and the mortality at 50 ppm came to 64%. Also, under setting [5], the mortality at 10 ppm is 9% and the mortality at 50 ppm worked out at 13%. For the same compound, under setting [6], the mortality at 10 ppm is 8%, the mortality at 25 ppm amounted to 14% and the mortality at 50 ppm was 6%. For the same compound, under setting [7], the mortality at 10 ppm was determined as 8%, the mortality at 25 ppm stood at 9% and the mortality at 50 ppm came out at 11%. Moreover, under setting [8], the mortality at 10 ppm was 8% and the mortality at 50 ppm is 9%. The “Spray interval” value (Rate 5 g AI/ha) is listed as 7 days. Moreover, where the note is “Rate 12.5 g AI/ha”, the “Spray interval” value stood at 7 days. The “Spray interval” value (Rate 25 g AI/ha) is listed as 7 days.

For the compound `O=C(NC(=O)c1c(F)cccc1F)Nc1cc(Cl)c(OC(F)(F)C(F)F)c(Cl)c1` [Consult, Hexaflumuron], the “Transovarial effects on treated adults” value is “Transovarial effects can be observed”. Further, under setting [1], the mortality at 10 ppm was found to be 75% and the mortality at 25 ppm was found to be 97%. For the same compound, under setting [2], the mortality at 10 ppm was determined as 36%, the mortality at 25 ppm was found to be 93% and the mortality at 50 ppm turned out to be 92%. For the same compound, under setting [3], the mortality at 10 ppm stood at 7%, the mortality at 25 ppm turned out to be 15% and the mortality at 50 ppm was found to be 15%. Also, under setting [4], the mortality at 10 ppm worked out at 8%, the mortality at 25 ppm came out at 11% and the mortality at 50 ppm came to 22%. In addition, under setting [5], the mortality at 10 ppm came out at 9% and the mortality at 50 ppm was found to be 48%. Moreover, under setting [6], the mortality at 10 ppm worked out at 10%, the mortality at 25 ppm worked out at 11% and the mortality at 50 ppm is 15%. In addition, under “Rate 5 g AI/ha”, the “Spray interval (days)” value is “Insufficient”. The “Spray interval” value (Rate 12.5 g AI/ha) is listed as 5 days. Further, the “Spray interval” value (Rate 25 g AI/ha) is 5 days.

As for `O=C(NC(=O)c1c(F)cccc1F)Nc1ccc(Cl)cc1` [Dimilin, Diflubenzuron], the “Transovarial effects on treated adults” value was “transovarially inactive”. Further, under setting [1], the mortality at 10 ppm worked out at 0% and the mortality at 25 ppm is 0%. Under setting [2], the mortality at 10 ppm was found to be 11%, the mortality at 25 ppm was determined as 7% and the mortality at 50 ppm is 16%. Also, under setting [3], the mortality at 10 ppm is 6%, the mortality at 25 ppm stood at 5% and the mortality at 50 ppm was 3%. Further, under setting [4], the mortality at 10 ppm turned out to be 10%, the mortality at 25 ppm turned out to be 5% and the mortality at 50 ppm was 5%. Besides, under setting [5], the mortality at 10 ppm came to 9% and the mortality at 50 ppm was 7%. Moreover, under setting [6], the mortality at 10 ppm was 12%, the mortality at 25 ppm stood at 10% and the mortality at 50 ppm was 7%. The mortality at 50 ppm under setting [7] amounted to 8%.

Regarding `COc1cccc(C(=O)NN(C(=O)c2cc(C)cc(C)c2)C(C)(C)C)c1C` [Intrepid, Methoxyfenozide], the “Transovarial effects on treated adults” value is “transovarially inactive”. For the same compound, under setting [1], the mortality at 10 ppm is 7% and the mortality at 25 ppm was determined as 13%. Under setting [2], the mortality at 10 ppm was 8%, the mortality at 25 ppm amounted to 13% and the mortality at 50 ppm is 14%. For the same compound, under setting [3], the mortality at 10 ppm came out at 9%, the mortality at 25 ppm is 7% and the mortality at 50 ppm amounted to 10%. Also, under setting [4], the mortality at 10 ppm came to 7%, the mortality at 25 ppm stood at 11% and the mortality at 50 ppm is 9%.
